The record followed here is patent US12661431B2, “Pharmaceutical compositions for treating osteoarthritis” (INSIGNIA PHARMACEUTICALS, LLC, priority 2023, dated 2026).

For series [1], the system named is THP-1 macrophage-like cells. In words: IL-1beta release (ELISA) from PMA-differentiated THP-1 cells stimulated with CL075 with or without ATP. Format: cell-based, human. The conditions noted are these: 1 millimolar decanoic acid. On the procedure: TLR7/8 agonists increase inflammasome activity and IL-1beta release through a different pathway relative to TLR4 agonists. To evaluate this response, THP-1 monocytic cells were differentiated to a macrophage-like state using PMA for 72 hours. […] To further activate the inflammasome, ATP was then added to the wells designated “second hit,” and the cultures were incubated for an additional hour. To indicated wells, hyaluronidase was added for 15 minutes, and all mediums harvested for IL-1beta ELISA quantification. Results are depicted in FIG. 7.
In general terms: In an ELISA, binding on a coated surface is turned into a signal by an enzyme label.

The subject of series [2] is Human osteoarthritic chondrocytes. As to the kind of experiment: Immunostaining for SOX9, Col2a1 and ACAN of osteoarthritic chondrocytes cultured 24 days on HA hydrogel. Format: cell-based. The text has this:
ACAN is an articular cartilage-specific proteoglycan that is important to the proper function and the load-bearing capacity of cartilage. Data is presented as the fluorescence of photographic images captured on an epifluorescent microscope for the ACAN signal (FU) normalized to the signal of 4′,6-diamidino-2-phenylindole (DAPI) nuclear stain, designated as FU/DAPI.
The chondrocytes were layered on top of an HA hydrogel (SYNVISC®, Sanofi-Aventis, United States). Following 24 days, the cells were fixed with paraformaldehyde and immunostained for SOX9, Col2a1, and ACAN.

Series [3] has the same test system. In words: Microscopic examination of chondrocyte spheroid morphology on HA hydrogel. Format: cell-based. The protocol: The chondrocytes were layered on top of an HA hydrogel (SYNVISC®, Sanofi-Aventis, United States). Following 20 days, hyaluronidase was added to release the cells from the hydrogel, the cells were collected, and total RNA was isolated.
Control chondrocytes established a monolayer on the bottom surface of their culture wells (FIG. 4A).

Series [4] deals with THP-1 macrophage-like cells. In words: IL-1beta release (ELISA) from PMA-differentiated THP-1 cells activated with LPS then ATP. Format: cell-based, human. To be noted: 0.2 (0.19) to 6 millimolar; LPS 100 ng/mL 24 hours then 10 millimolar ATP 1 hour. The protocol: The human monocyte cell line THP-1 was differentiated into macrophage-like cells with PMA for 72 hours. […] Cells were then activated with 100 nanograms per milliliter lipopolysaccharide (LPS) for 24 hours followed by an additional hour with 10 millimolar adenosine triphosphate (ATP). LPS is a toll-like receptor 4 (TLR4) agonist, and ATP activates […] to promote inflammasome activity. The resulting IL-1beta release was quantified by enzyme-linked immunosorbent assay (ELISA).

For series [5], the system named is THP-1 macrophage-like cells. As to the kind of experiment: Colorimetric MTS cell density/viability assay, resting and activated THP-1 cultures. Format: cell-based, human. The conditions noted are these: 6 millimolar decanoic acid. The protocol:
Then cell density was assessed in both resting and activated cultures using a colorimetric MTS assay with optical density at 490 nanometers (FIGS. 6A & 6B).

The subject of series [6] is THP-1 macrophage-like cells. As to the kind of experiment: Tetrazolium colorimetric cell count assay of THP-1 cultures on HA hydrogel. Format: cell-based, human. The conditions noted are these: addition of decanoic acid (1 millimolar) on HA hydrogel. On the procedure: A colorimetric assay confirmed that the inhibition of IL-1beta release was not caused solely by reduced cell counts. Tetrazolium colorimetric dye was added to the cultures at the end of the experiment and cell counts were measured by optical density at 490 nanometers.

The subject of series [7] is Osteoarthritic fibroblast-like chondrocytes. As to the kind of experiment: MMP13 expression by real time RT-PCR in osteoarthritic fibroblast-like chondrocytes. Format: cell-based. To be noted: 0.1 percent hyaluronic acid and/or 0.1 micromolar dexamethasone. On the procedure:
Osteoarthritic fibroblast-like chondrocytes were cultured for 2 to 28 days in the presence of either 0.1 percent hyaluronic acid, 0.1 micromolar dexamethasone, or both 0.1 percent hyaluronic acid and 0.1 micromolar dexamethasone. Media was exchanged every 2-3 days. Chondrocytes cultured for 2 days, 14 days, or 28 days were analyzed by real time RT-PCR to assess matrix metallopeptidase 13 (MMP13) expression.

[8] abbreviates: high-density monolayers, vehicle, 0.1, 0.5 and 1 millimolar decanoic acid.

Entries after “also recorded” stand apart in the source; their conditions may differ.

For the compound `CCCCCCCCCC(=O)O` [decanoic acid], the “decrease concentration of IL-1beta” value in series [1] (CL075 24 hours then ATP 1 hour (second hit)) was 91%; in series [1] (CL075 24 hours, absence of ATP (first hit)), 77%. Also, the “spheroid development or condensation” value in series [2] (1 millimolar decanoic acid, 24 days on HA hydrogel) is on record as “enhanced spheroid development or condensation”. Besides, in series [2] (high-density monolayers), the “concentration of peak Col2a1 staining” value was 0.5 millimolar. Further, the “punctate staining for Col2a1” value in series [2] (setting [8]) is given as “dose-dependent punctate staining for Col2a1”. Moreover, the “staining for aggrecan (ACAN)” value in series [2] (setting [8]) is given as “dose-dependent increase in staining for aggrecan”. The “nuclear staining for SOX9” value in series [2] (high-density monolayers, vehicle, 0.1, 0.5 and 1 millimolar decanoic acid, 24 days on HA hydrogel) was “enhanced nuclear staining for SOX9 in a dose-dependent manner”. Also, the “punctate immunostaining for Col2a1” value in series [2] (low-density monolayers, 1 millimolar decanoic acid) is “strong punctate immunostaining for Col2a1”. Moreover, the “intracellular staining for ACAN (FU/DAPI, FIG. 1)” value in series [2] (low-density monolayers, increasing millimolar concentrations, strongest at 1 millimolar) was “dose-dependent increase in aggrecan (ACAN) immunofluorescence staining; also recorded: dose-dependent intracellular staining for ACAN”. For the same compound, the “ACAN immunostaining of chondrocyte spheroids” value in series [2] (spheroids on HA hydrogels, 1 millimolar decanoic acid) was “strong ACAN immunostaining”. Besides, the “spheroid morphology after 4 days of culture” value in series [3] (4 days on HA hydrogel, with vs without decanoic acid) is listed as “the spheroids generated interconnected networks; also recorded: promoted interconnected networks of spheroids”. Further, the “spheroid morphology after 20 days of culture” value in series [3] (20 days on HA hydrogel, 1 millimolar decanoic acid vs without) was “increased condensation and the development of large spheroids; also recorded: large spheroid development or condensation”. Also, in series [4], the “inhibition of inflammasome-IL-1beta release” value was “dose-dependent inhibition of IL-1beta concentrations; also recorded: dose-dependent inhibition of inflammasome-IL-1beta release”. The “cell density / viability (MTS, OD 490 nanometers)” value in series [5] was “significant decrease in viability; also recorded: unfavorable effect on cell density”. For the same compound, the “decrease in optical density at 490 nanometers (cell counts)” value was 18% in series [6] (CL075, absence of ATP) and 25% in series [6] (CL075, presence of ATP).

As to `C[C@@H]1C[C@H]2[C@@H]3CCC4=CC(=O)C=C[C@]4(C)[C@@]3(F)[C@@H](O)C[C@]2(C)[C@@]1(O)C(=O)CO` [dexamethasone], in series [7], the “Change in MMP13 expression at day 2” value is 0, the “Change in MMP13 expression at day 14” value was −399 and the “Change in MMP13 expression at day 28” value was −4.
